According to patent US10051857B2, “Formulation component” (SYNGENTA LIMITED, priority 2011, dated 2018):

What was measured:
Format in all cases: in vivo
Setaria viridis (SETVI) [1] = assay: Glasshouse adjuvant test with fomesafen (Example 5); settings: fomesafen 60 or 120 g/ha, adjuvant 0.2% v/v or none, 200 l/ha; growth stage 13; mean over two rates, three replicates, 7, 14 and 21 days
Protocol: (§1) Compound 1 (N, N-diethyl-3-methylbenzamide) was tested in a glasshouse against four weed species using the herbicide fomesafen. An agrochemical composition was prepared containing 0.2% v/v of the adjuvant in a track sprayer and was applied at a volume of 200 liters per hectare. Fomesafen was applied at either 60 or 120 grams of pesticide per hectare on each of the weed species. The weed species and their growth stage at spraying were Chenopodium album (CHEAL; growth stage 13/14), Abutilon theophrasti (ABUTH; growth stage 12), Setaria viridis (SETVI; growth stage 13), and Xanthium strumarium (XANST; growth stage 12).
(§2) Each spray test was replicated three times. The efficacy of the herbicide was assessed visually and expressed as a percentage of the leaf area killed. Samples were assessed at time periods of 7, 14 and 21 days following application. The results shown in Table 5 below are mean averages over the two rates of fomesafen, three replicates and the three assessment timings, and are compared to the efficacy of fomesafen in the absence of adjuvant.

[2] = tested on: Chenopodium album (CHEAL); assay: as above; settings: fomesafen 60 or 120 g/ha, adjuvant 0.2% v/v or none, 200 l/ha; growth stage 13/14; mean over two rates, three replicates, 7, 14 and 21 days
Protocol: as §1, §2

[3] = tested on: Xanthium strumarium (XANST); assay: as above; settings: fomesafen 60 or 120 g/ha, adjuvant 0.2% v/v or none, 200 l/ha; growth stage 12; mean over two rates, three replicates, 7, 14 and 21 days
Protocol: as §1, §2

[4] = tested on: Abutilon theophrasti (ABUTH); assay: as above; settings: fomesafen 60 or 120 g/ha, adjuvant 0.2% v/v or none, 200 l/ha; growth stage 12; mean over two rates, three replicates, 7, 14 and 21 days
Protocol: as §1, §2

Setaria viridis (SETVI) [5] = assay: Glasshouse adjuvant test with nicosulfuron (Example 7); settings: nicosulfuron 30 or 60 g/ha, adjuvant 0.2% v/v or none, 200 l/ha; growth stage 13; mean over two rates, three replicates, 14 and 21 days
Protocol: (§3) Compound 1 was tested in a glasshouse against four weed species using the herbicide nicosulfuron. A 20% w/w stock emulsion of compound 1 was prepared additionally containing 2% w/w Gohsenol® GL03 and 2% w/w Pluronic® PE10500 as surfactants. Using this, an agrochemical composition was prepared containing 0.2% v/v of the adjuvant in a track sprayer and was applied at a volume of 200 liters per hectare. Nicosulfuron was applied at either 30 or 60 grams of pesticide per hectare on each of the weed species. The weed species and their growth stage at spraying were Abutilon theophrasti (ABUTH; growth stage 13), Chenopodium album (CHEAL; growth stage 14), Digitaria sanguinalis (DIGSA; growth stage 13), and Setaria viridis (SETVI; growth stage 13).
(§4) Each spray test replicated three times. The efficacy of the herbicide was assessed visually and expressed as a percentage of the leaf area killed. Samples were assessed at time periods of 14 and 21 days following application. The results shown in Table 7 below are mean averages over the two rates of nicosulfuron, three replicates and the two assessment timings, and are compared to the efficacy of nicosulfuron in the absence of an adjuvant.

[6] = tested on: Chenopodium album (CHEAL); assay: as above; settings: nicosulfuron 30 or 60 g/ha, adjuvant 0.2% v/v or none, 200 l/ha; growth stage 14; mean over two rates, three replicates, 14 and 21 days
Protocol: as §3, §4

[7] = tested on: Digitaria sanguinalis (DIGSA); assay: as above; settings: nicosulfuron 30 or 60 g/ha, adjuvant 0.2% v/v or none, 200 l/ha; growth stage 13; mean over two rates, three replicates, 14 and 21 days
Protocol: as §3, §4

[8] = tested on: Abutilon theophrasti (ABUTH); assay: as above; settings: nicosulfuron 30 or 60 g/ha, adjuvant 0.2% v/v or none, 200 l/ha; growth stage 13; mean over two rates, three replicates, 14 and 21 days
Protocol: as §3, §4

CCN(CC)C(=O)c1cccc(C)c1 [Compound 1, N, N-diethyl-3-methylbenzamide] was tested, and the “Mean percentage kill SETVI” value (Setaria viridis (SETVI) [1]) was 15.8%, the “Mean percentage kill CHEAL” value [2] was 80.3% and the “Mean percentage kill XANST” value [3] was 35.6%. The “Mean percentage kill ABUTH” value [4] was 38.9%, the “Mean percentage kill SETVI” value (Setaria viridis (SETVI) [5]) was 93.4% and the “Mean percentage kill CHEAL” value [6] was 63.8%. For the same compound, the “Mean percentage kill DIGSA” value [7] was 89.4% and the “Mean percentage kill ABUTH” value [8] was 72.9%.
